Laboratory results taken from patent US8575091B1, “Amylin analogues and pharmaceutical compositions thereof” (Novo Nordisk A/S, priority 2012, dated 2013).
Read-outs that look alike come from different tables or passages of the source. Numbered stars: 1 amine (or outer) side, 2 acyl side, 3 side chain; on linkers, the order of the positions; unused ones are H or OH. Bridge positions count the residues as written; N and C are the ends. Side chains are listed from the residue outwards. Peptide text beside a SMILES is read from it. * marks the point of attachment. C20 diacid = O=C(O)CCCCCCCCCCCCCCCCCCC(=O)*; γGlu = O=C(O)[C@H](CCC(=O)[*:2])N[*:1]

Experiments:
[1] = biological target: T1, human calcitonin receptor (Homo sapiens, UniProt P30988); test: Assay (VII) binding to the human calcitonin receptor (SPA, 125I-Calcitonin); details: read-out: hCTR bind IC50;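 also: cell membranes coupled to SPA beads, competitive displacement read by scintillation counting, IC50 derived from a one-site competition fit as a measure of receptor affinity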
T1 construct: expressed in transfected cells
T1 sequence (P30988 25-474): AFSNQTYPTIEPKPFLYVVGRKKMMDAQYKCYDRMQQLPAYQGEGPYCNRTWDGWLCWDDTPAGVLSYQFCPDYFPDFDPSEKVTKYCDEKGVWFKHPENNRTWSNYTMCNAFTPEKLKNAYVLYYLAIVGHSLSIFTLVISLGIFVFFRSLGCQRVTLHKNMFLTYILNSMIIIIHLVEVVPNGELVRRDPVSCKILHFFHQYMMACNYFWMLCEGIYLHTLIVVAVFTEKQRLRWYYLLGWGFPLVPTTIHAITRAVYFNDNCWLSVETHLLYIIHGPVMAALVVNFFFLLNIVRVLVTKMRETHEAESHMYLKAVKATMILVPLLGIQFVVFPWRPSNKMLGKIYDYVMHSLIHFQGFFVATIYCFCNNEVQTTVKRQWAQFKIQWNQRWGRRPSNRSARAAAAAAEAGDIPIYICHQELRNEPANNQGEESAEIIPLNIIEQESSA

Wistar rats = test: Assay (XII) single subcutaneous administration, plasma calcium in rats; format: in vivo, rat; details: for Plasma calcium red (%) 0-12 h: single s.c., maximal reduction 0-12 h, compared to vehicle; for suppression of plasma calcium level relative to vehicle: single subcutaneous, over 24 hours
Description: Assay (XII)—Effect from Single Subcutaneous Administration of Analogue on Plasma Calcium in Rats
Male Wistar rats (Taconic Europe, ˜250 g at test date) were acclimatized to handling prior to the study. Rats were divided in groups of five and subcutaneously dosed with test compound at time=0. At time T=−15 min; 1 h, 2 h, 4 h, 7 h, 12 h, and 24 h a blood sample was obtained and heparin stabilized plasma was analysed for total calcium (Cobas, Hitachi). Data are illustrated in graphs as mean±SEM.

[2] = biological target: T1, human calcitonin receptor; test: Assay (II)a functional assay, human calcitonin receptor (CRE luciferase, BHK cells);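 also: luminescence from a CRE-driven luciferase reporter, read by single photon counting after cells were exposed to test samples for 3 h at 37 °C under 5% CO2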; format: cell-based; details: read-out: hCTR funct. EC50
[3] = biological target: T2, human amylin receptor (amylin 3(a) receptor: human calcitonin receptor + RAMP-3) (Homo sapiens, UniProt O60896+P30988); test: Assay (II)a functional assay, human amylin receptor (CRE luciferase, BHK cells); format: cell-based; details: for EC50: functional assay, human amylin receptor, read-out: hAmylin-R funct. EC50
T2 construct: expressed in transfected cells
T2 sequence (P30988 25-474): T1 sequence (P30988 25-474)
T2 sequence (O60896 24-148 partner): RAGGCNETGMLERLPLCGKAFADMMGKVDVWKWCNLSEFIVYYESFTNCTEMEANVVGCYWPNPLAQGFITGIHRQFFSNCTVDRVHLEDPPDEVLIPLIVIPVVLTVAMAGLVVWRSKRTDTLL
Description: Assay (II)—Functional Assays
Consequently, transcription is activated by promoters containing multiple copies of the cAMP response element (CRE).
The cell line was further transfected with RAMP-3, using standard methods.
After incubation overnight at 37° C. and 5% CO2, the growth medium was replaced by 50 μl/well assay medium (DMEM (without phenol red), Glutamax™, 10% FBS, and 10 mM Hepes, pH 7.4). Further, 50 μl/well of standard or sample in assay buffer were added. After 3 hours incubation at 37° C. and 5% CO2, the assay medium with standard or sample were removed and replaced by 100 μl/well PBS. Further, 100 μl/well LucLite™ was added. The plates were sealed and incubated at room temperature for 30 minutes. Finally, luminescence was measured on a TopCounter (Packard) in SPC (single photon counting) mode.

human amylin receptor = biological target: T3, human amylin receptor (Homo sapiens, UniProt O60896+P30988); test: Assay (V) binding to the human amylin receptor (SPA, 125I-rat amylin); details: for IC50: read-out: hAmylin-R bind IC50
T3 construct: expressed in transfected cells
T3 sequence (P30988 25-474): T1 sequence (P30988 25-474)
T3 sequence (O60896 24-148 partner): T2 sequence (O60896 24-148 partner)
Outline: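 SPA competition binding on membranes from Amylin 3(a)/CRE-luc cells, 35 ng/μL membranes with 0.05 mg/well beads. Buffer 50 mM Hepes pH 7.4, 1 mM CaCl2, 5 mM MgCl2, 0.1% OA, 0.02% Tween20. IC50 from one-site competition fit as affinity measure.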

[4] = Assay (IV) determination of solubility; format: physicochemical
Description: Assay (IV)—Determination of Solubility
The polypeptide was dissolved in water at ˜500 nmol/ml and mixed 1:1 with a series of buffers (100 mM glycylglycine pH 3.0, 100 mM glycylglycine pH 4.0, 100 mM glycylglycine pH 5.0, 100 mM bistrispropane pH 6.0, 100 mM bistrispropane pH 6.5, 100 mM bistrispropane pH 7.0, 100 mM bistrispropane pH 7.5, 100 mM bistrispropane pH 8.0). After 18 hours at room temperature the samples were centrifuged and the polypeptide concentration determined by UPLC.

[5] = human amylin receptor membranes, SPA
[6] = Table 6, human functional selectivity (hCTR EC50 / hAmylin-R EC50)
[7] = Table 6a, human functional selectivity (hCTR EC50 / hAmylin-R EC50), at least 5
[8] = Table 6j, hCTR funct. EC50 / hAmylin-R funct. EC50
[9] = Table 6k, hCTR funct. EC50 / hAmylin-R funct. EC50

Structure (SMILES): CC[C@H](C)[C@H](NC(=O)[C@H](C)NC(=O)CNC(=O)[C@H](Cc1ccccc1)NC(=O)[C@H](CC(N)=O)NC(=O)[C@@H]1CCCN1C(=O)[C@H](CO)NC(=O)[C@H](CO)NC(=O)[C@H](Cc1c[nH]cn1)NC(=O)[C@H](CCCNC(=N)N)NC(=O)[C@H](CC(C)C)NC(=O)[C@H](Cc1ccccc1)NC(=O)[C@H](CC(=O)O)NC(=O)[C@H](C)NC(=O)[C@H](CC(C)C)NC(=O)[C@H](CCCNC(=N)N)NC(=O)[C@H](CCC(N)=O)NC(=O)[C@@H](NC(=O)[C@H](C)NC(=O)[C@@H]1CSSC[C@H](NC(=O)[C@@H](N)CCCCNC(=O)CC[C@H](NC(=O)CC[C@H](NC(=O)CCCCCCCCCCCCCCCCCCC(=O)O)C(=O)O)C(=O)O)C(=O)N[C@@H](CC(N)=O)C(=O)N[C@@H]([C@@H](C)O)C(=O)N[C@@H](C)C(=O)N[C@@H]([C@@H](C)O)C(=O)N1)[C@@H](C)O)C(=O)N1CCC[C@H]1C(=O)N[C@@H](CO)C(=O)N[C@@H](CO)C(=O)N[C@H](C(=O)N[C@@H](CC(N)=O)C(=O)N[C@H](C(=O)NCC(=O)N[C@@H](CO)C(=O)N[C@@H](CC(=O)O)C(=O)N[C@H](C(=O)N[C@@H](Cc1ccc(O)cc1)C(N)=O)[C@@H](C)O)C(C)C)[C@@H](C)O [Example 2] (H-K([γGlu-γGlu-C20 diacid])CNTATCATQRLADFLRHSSPNFGAIPSSTNVGSDTY-NH2; disulfide 2-7)
- IC50 [1]: 19.5 nM
- Plasma calcium red (%) 0-12 h (Wistar rats; 100 nmol/kg): 9%
- suppression of plasma calcium level relative to vehicle (Wistar rats; 100 nmol/kg): does not trigger a notable suppression of the calcium level
- EC50 [2]: 3 nM
- EC50 [3]: 0.182 nM
- IC50 (human amylin receptor; [5]): 0.411 nM

Structure (SMILES): CC[C@H](C)[C@H](NC(=O)[C@H](C)NC(=O)CNC(=O)[C@H](Cc1ccccc1)NC(=O)[C@H](CC(N)=O)NC(=O)[C@@H]1CCCN1C(=O)[C@H](CO)NC(=O)[C@H](CO)NC(=O)[C@H](Cc1c[nH]cn1)NC(=O)[C@H](CCCNC(=N)N)NC(=O)[C@H](CC(C)C)NC(=O)[C@H](Cc1ccccc1)NC(=O)[C@H](CCC(=O)O)NC(=O)[C@H](C)NC(=O)[C@H](CC(C)C)NC(=O)[C@H](CCCNC(=N)N)NC(=O)[C@H](CCC(N)=O)NC(=O)[C@@H](NC(=O)[C@H](C)NC(=O)[C@@H]1CSSC[C@H](NC(=O)[C@@H](N)CCCCNC(=O)CC[C@H](NC(=O)CCCCCCCCCCCCCCCCCCC(=O)O)C(=O)O)C(=O)N[C@@H](CC(N)=O)C(=O)N[C@@H]([C@@H](C)O)C(=O)N[C@@H](C)C(=O)N[C@@H]([C@@H](C)O)C(=O)N1)[C@@H](C)O)C(=O)N1CCC[C@H]1C(=O)N[C@@H](CO)C(=O)N[C@@H](CO)C(=O)N[C@H](C(=O)N[C@@H](CC(N)=O)C(=O)N[C@H](C(=O)NCC(=O)N[C@@H](CO)C(=O)N[C@@H](CCCNC(=N)N)C(=O)N[C@H](C(=O)N[C@@H](Cc1ccc(O)cc1)C(N)=O)[C@@H](C)O)C(C)C)[C@@H](C)O [Example 51] (H-K([γGlu-C20 diacid])CNTATCATQRLAEFLRHSSPNFGAIPSSTNVGSRTY-NH2; disulfide 2-7)
- IC50 [1]: 31.1 nM
- Plasma calcium red (%) 0-12 h (Wistar rats; 30 nmol/kg): 10%
- suppression of plasma calcium level relative to vehicle (Wistar rats; 30 nmol/kg): None of the example compounds at 30 nmol/kg trigger a notable suppression of the calcium level
- EC50 [2]: 5.22 nM
- Ratio hCT/hAmylin funct. [3, 6]: 14.0
- Ratio hCT/hAmylin funct. [3, 7]: 14.0
- Ratio hCT/hAmylin funct. ([3]; Table 6i, hCTR funct. EC50 / hAmylin-R funct. EC50): 14.0
- Ratio hCT/hAmylin funct. [3, 8]: 14.0
- Ratio hCT/hAmylin funct. [3, 9]: 14.0
- EC50 [3]: 0.372 nM
- IC50 (human amylin receptor; [5]): 0.828 nM

Structure (SMILES): CC[C@H](C)[C@H](NC(=O)[C@H](C)NC(=O)CNC(=O)[C@H](Cc1ccccc1)NC(=O)[C@H](CC(N)=O)NC(=O)[C@@H]1CCCN1C(=O)[C@H](CO)NC(=O)[C@H](CO)NC(=O)[C@H](Cc1c[nH]cn1)NC(=O)[C@H](CCCNC(=N)N)NC(=O)[C@H](CC(C)C)NC(=O)[C@H](Cc1ccccc1)NC(=O)[C@H](Cc1c[nH]cn1)NC(=O)[C@H](C)NC(=O)[C@H](CC(C)C)NC(=O)[C@H](CCCNC(=N)N)NC(=O)[C@H](CCC(N)=O)NC(=O)[C@@H](NC(=O)[C@H](C)NC(=O)[C@@H]1CSSC[C@H](NC(=O)[C@H](CCCNC(=N)N)NC(=O)CNC(=O)CC[C@H](NC(=O)CCCCCCCCCCCCCCCCCCC(=O)O)C(=O)O)C(=O)N[C@@H](CC(N)=O)C(=O)N[C@@H]([C@@H](C)O)C(=O)N[C@@H](C)C(=O)N[C@@H]([C@@H](C)O)C(=O)N1)[C@@H](C)O)C(=O)N1CCC[C@H]1C(=O)N[C@@H](CO)C(=O)N[C@@H](CO)C(=O)N[C@H](C(=O)N[C@@H](CC(N)=O)C(=O)N[C@H](C(=O)NCC(=O)N[C@@H](Cc1c[nH]cn1)C(=O)N[C@@H](CC(N)=O)C(=O)N[C@H](C(=O)N[C@@H](Cc1ccc(O)cc1)C(N)=O)[C@@H](C)O)C(C)C)[C@@H](C)O [Example 100] ({C20 diacid-γGlu}-GRCNTATCATQRLAHFLRHSSPNFGAIPSSTNVGHNTY-NH2; disulfide 3-8)
- Solubility pH 6.5 Concentration (μM) ([4]; pH 6.5, 18 hours room temperature): ≧200 μM
- Solubility pH 7.0 Concentration (μM) ([4]; pH 7.0, 18 hours room temperature): 109 μM
- Solubility pH 7.5 Concentration (μM) ([4]; pH 7.5, 18 hours room temperature): 26 μM
- Solubility pH 8.0 Concentration (μM) ([4]; pH 8.0, 18 hours room temperature): 31 μM
- IC50 [1]: 66.3 nM
- EC50 [2]: 1.73 nM
- Ratio hCT/hAmylin funct. [3, 6]: 6.8
- Ratio hCT/hAmylin funct. [3, 7]: 6.8
- Ratio hCT/hAmylin funct. [3, 8]: 6.8
- Ratio hCT/hAmylin funct. [3, 9]: 6.8
- EC50 [3]: 0.253 nM
- IC50 (human amylin receptor; [5]): 1.02 nM

Structure (SMILES): CC[C@H](C)[C@H](NC(=O)[C@H](C)NC(=O)CNC(=O)[C@@H]1CCCN1C(=O)[C@H](CC(N)=O)NC(=O)[C@H](CC(N)=O)NC(=O)[C@H](CO)NC(=O)[C@H](CO)NC(=O)[C@H](Cc1c[nH]cn1)NC(=O)[C@H](CCCNC(=N)N)NC(=O)[C@H](CC(C)C)NC(=O)[C@H](Cc1ccccc1)NC(=O)[C@H](CCC(=O)O)NC(=O)[C@H](C)NC(=O)[C@H](CC(C)C)NC(=O)[C@H](CCCNC(=N)N)NC(=O)[C@H](CCC(N)=O)NC(=O)[C@@H](NC(=O)[C@H](C)NC(=O)[C@@H]1CSSC[C@H](NC(=O)[C@@H](N)CCCCNC(=O)CC[C@H](NC(=O)CC[C@H](NC(=O)CCCCCCCCCCCCCCCCCCC(=O)O)C(=O)O)C(=O)O)C(=O)N[C@@H](CC(N)=O)C(=O)N[C@@H]([C@@H](C)O)C(=O)N[C@@H](C)C(=O)N[C@@H]([C@@H](C)O)C(=O)N1)[C@@H](C)O)C(=O)N[C@@H](CC(C)C)C(=O)N[C@@H](CO)C(=O)N[C@@H](CO)C(=O)N[C@H](C(=O)N[C@@H](CC(N)=O)C(=O)N[C@H](C(=O)NCC(=O)N1CCC[C@H]1C(=O)N[C@@H](CCC(=O)O)C(=O)N[C@H](C(=O)N[C@@H](Cc1ccc(O)cc1)C(N)=O)[C@@H](C)O)C(C)C)[C@@H](C)O [Example 126] (H-K([γGlu-γGlu-C20 diacid])CNTATCATQRLAEFLRHSSNNPGAILSSTNVGPETY-NH2; disulfide 2-7)
- Solubility pH 4.0 Concentration (μM) ([4]; pH 4.0, 18 hours room temperature): 7 μM
- Solubility pH 6.0 Concentration (μM) ([4]; pH 6.0, 18 hours room temperature): 64 μM
- IC50 [1]: 9.29 nM
- EC50 [2]: 89.6 nM
- EC50 [3]: 5.17 nM
- IC50 (human amylin receptor; binding to human amylin receptor): 1.19 nM
- IC50 (human amylin receptor; [5]): 1.19 nM
- Ratio hCT/hAmylin binding (human amylin receptor; human binding ratio, included for comparison): 7.8
